Measurements published in ChEMBL document CHEMBL1201862, “PubChem BioAssay data set” (2004).
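Tested at 5 concentrations; 48 h exposure; 96-well plates; endpoints linearly interpolated, else capped at highest concentration. Abbreviation: GI50, concentration required for 50% inhibition of growth.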 Calls of active or inactive are those of the source. Cut-off read from the data, not from the text of the source: active = GI50 up to about 1.1 µM and inactive = higher.

Columns and labels:
Experiment in all cases: growth of human tumour cells (NCI), 48 h
SF-295 = system: SF-295
HCT-116 = system: HCT-116
OVCAR-5 = system: OVCAR-5
OVCAR-8 = system: OVCAR-8
NCI/ADR-RES = system: NCI/ADR-RES
A549 = system: A549
OVCAR-3 = system: OVCAR-3
MDA-MB-435 = system: MDA-MB-435
HCT-15 = system: HCT-15
HT-29 = system: HT-29
SF-539 = system: SF-539
RPMI-8226 = system: RPMI-8226
OVCAR-4 = system: OVCAR-4
PC-3 = system: PC-3
DU-145 = system: DU-145
NCI-H522 = system: NCI-H522
K562 = system: K562
SK-MEL-28 = system: SK-MEL-28
MOLT-4 = system: MOLT-4
SNB-75 = system: SNB-75

| SMILES | GI50 (SF-295) | GI50 (HCT-116) | GI50 (OVCAR-5) | GI50 (OVCAR-8) | GI50 (NCI/ADR-RES) | GI50 (A549) | GI50 (OVCAR-3) | GI50 (MDA-MB-435) | GI50 (HCT-15) | GI50 (HT-29) | GI50 (SF-539) | GI50 (RPMI-8226) | GI50 (OVCAR-4) | GI50 (PC-3) | GI50 (DU-145) | GI50 (NCI-H522) | GI50 (K562) | GI50 (SK-MEL-28) | GI50 (MOLT-4) | GI50 (SNB-75) |
| --- | --- | --- | --- | --- | --- | --- | --- | --- | --- | --- | --- | --- | --- | --- | --- | --- | --- | --- | --- | --- |
| COC(=O)[C@@H]1C=C[C@H](OC2OC(COC(C)=O)C(OC(C)=O)C(OC(C)=O)C2OC(C)=O)n2c(=O)n(-c3ccccc3)c(=O)n21 (stereo not given in full) | 10.8 µM (inactive) | 1.86 µM (inactive) | 6.27 µM (inactive) | 2.55 µM (inactive) | 6.92 µM (inactive) | 14.7 µM (inactive) | 1.74 µM (inactive) | 5.14 µM (inactive) | 1.84 µM | 1.88 µM (inactive) | 2.74 µM (inactive) | 1.47 µM (inactive) | 1.77 µM (inactive) | 2.77 µM (inactive) | 4.75 µM (inactive) | 0.507 µM (active) | 1.61 µM (inactive) | 2.33 µM (inactive) | 2.13 µM (inactive) | 4.06 µM (inactive) |
| Cn1ncc2c(Cl)ncnc21 | > 100 µM (inactive) | > 100 µM (inactive) | > 100 µM (inactive) | > 100 µM (inactive) | > 100 µM (inactive) | > 100 µM (inactive) | > 100 µM (inactive) | > 100 µM (inactive) | > 100 µM | > 100 µM (inactive) | > 100 µM (inactive) | > 100 µM (inactive) | > 100 µM (inactive) | > 100 µM (inactive) | > 100 µM (inactive) | > 100 µM (inactive) | > 100 µM (inactive) | > 100 µM (inactive) | > 100 µM (inactive) | > 100 µM (inactive) |
| COc1ccc(SCc2cc(OC)c(OC)c(OC)c2)cc1OC | 45.7 µM (inactive) | 61.7 µM (inactive) | > 94.6 µM (inactive) | > 80.2 µM (inactive) | 32.4 µM (inactive) | 43.8 µM (inactive) | > 56 µM (inactive) | 11.2 µM (inactive) | 34 µM | 67.6 µM (inactive) | > 80.2 µM (inactive) | 33.3 µM (inactive) | 22 µM (inactive) | 31.3 µM (inactive) | > 100 µM (inactive) | 53.6 µM (inactive) | 42.9 µM (inactive) | > 73.8 µM (inactive) | 46.2 µM (inactive) | 17.7 µM (inactive) |
| Cc1nc(SCC(=O)Nc2ccc(Cl)cc2)c2sc(=S)n(-c3ccccc3)c2n1 | > 10 µM (inactive) | > 10 µM (inactive) | > 10 µM (inactive) | > 10 µM (inactive) | > 10 µM (inactive) | > 10 µM (inactive) | > 10 µM (inactive) | > 10 µM (inactive) | > 10 µM | > 10 µM (inactive) | > 10 µM (inactive) | > 10 µM (inactive) | > 10 µM (inactive) | > 10 µM (inactive) | > 10 µM (inactive) | > 10 µM (inactive) | 6.41 µM (inactive) | > 10 µM (inactive) | > 10 µM (inactive) | > 10 µM (inactive) |
| O=C(CCCCCCCCC(=O)NN1C(=O)/C(=C\c2ccc(O)c(O)c2)SC1c1ccc(Cl)cc1)NN1C(=O)/C(=C\c2ccc(O)c(O)c2)SC1c1ccc(Cl)cc1 (stereo not given) | 16.2 µM (inactive) | 24.6 µM (inactive) | > 86.3 µM (inactive) | 10.7 µM (inactive) | 28.8 µM (inactive) | 21.3 µM (inactive) | 5.45 µM (inactive) | 66.8 µM (inactive) | 13.4 µM | 57.7 µM (inactive) | 13.4 µM (inactive) | 2.72 µM (inactive) | 31.9 µM (inactive) | 20.6 µM (inactive) | 19.9 µM (inactive) | 2.87 µM (inactive) | 21.6 µM (inactive) | > 54.7 µM (inactive) | 1.82 µM (inactive) | 29.9 µM (inactive) |
| O=C1c2cc([N+](=O)[O-])sc2C(=O)c2c([N+](=O)[O-])csc21 | 0.968 µM (active) | 0.456 µM (active) | 1.65 µM (inactive) | 0.785 µM (active) | 1.48 µM (inactive) | 1.9 µM (inactive) | 0.122 µM (active) | 0.168 µM (active) | 0.482 µM | 1.17 µM (inactive) | 0.349 µM (active) | 0.282 µM (active) | 0.64 µM (active) | 1.33 µM (inactive) | 1.7 µM (inactive) | 0.6 µM (active) | 0.116 µM (active) | 0.713 µM (active) | 0.229 µM (active) | 1.77 µM (inactive) |
| Cc1c(C(=O)O)sc2nc[nH]c(=O)c12 | > 100 µM (inactive) | > 100 µM (inactive) | > 100 µM (inactive) | > 100 µM (inactive) | > 100 µM (inactive) | > 100 µM (inactive) | > 100 µM (inactive) | > 100 µM (inactive) | > 100 µM | > 100 µM (inactive) | > 100 µM (inactive) | > 100 µM (inactive) | > 100 µM (inactive) | > 100 µM (inactive) | > 100 µM (inactive) | > 100 µM (inactive) | > 100 µM (inactive) | > 100 µM (inactive) | > 100 µM (inactive) | 49.8 µM (inactive) |
| CC(C)(Cl)C(Br)CC/C(=C/CBr)CBr.CC(C)(Cl)C(Br)CC/C(=C\CBr)CBr (stereo not given) | 3.71 µM (inactive) | 1.79 µM (inactive) | 13.2 µM (inactive) | 3.01 µM (inactive) | 2.86 µM (inactive) | 12.5 µM (inactive) | 2.45 µM (inactive) | 1.87 µM (inactive) | 1.95 µM | 1.95 µM (inactive) | 2.47 µM (inactive) | 1.11 µM (active) | 2.25 µM (inactive) | 7.45 µM (inactive) | 8.05 µM (inactive) | 1.68 µM (inactive) | 1.71 µM (inactive) | 3.2 µM (inactive) | 1.14 µM (inactive) | 2.48 µM (inactive) |
| OC(CC(O)(C(F)(F)F)C(F)(F)F)c1ccc(C(O)CC(O)(C(F)(F)F)C(F)(F)F)cc1 (stereo not given) | 18.2 µM (inactive) | 11.8 µM (inactive) | 17.1 µM (inactive) | 15.9 µM (inactive) | 14.6 µM (inactive) | 14.4 µM (inactive) | 6.38 µM (inactive) | 18.2 µM (inactive) | 20.1 µM | 12.3 µM (inactive) | 15.7 µM (inactive) | 15.6 µM (inactive) | 15.7 µM (inactive) | 18.2 µM (inactive) | 15 µM (inactive) | 18.3 µM (inactive) | 15.9 µM (inactive) | 16 µM (inactive) | 16.3 µM (inactive) | 17.5 µM (inactive) |
| Cc1cc2c(c(/C=N/c3ccc(N(C)C)cc3)c1)OC1(C=C2)Oc2ccccc2C(=O)N1C (stereo not given) | 21.2 µM (inactive) | 8.22 µM (inactive) | 17.7 µM (inactive) | 14.2 µM (inactive) | 16.5 µM (inactive) | 20.1 µM (inactive) | > 35.2 µM (inactive) | 13 µM (inactive) | 8.34 µM | 23.1 µM (inactive) | 10 µM (inactive) | 5.96 µM (inactive) | 12.6 µM (inactive) | > 35.5 µM (inactive) | 14 µM (inactive) | 14.4 µM (inactive) | 4.97 µM (inactive) | 16 µM (inactive) | 1.75 µM (inactive) | 18 µM (inactive) |
| Nc1ccc2ccc(N3CCNCC3)nc2n1 | 39.9 µM (inactive) | 43.2 µM (inactive) | 32.4 µM (inactive) | > 100 µM (inactive) | > 100 µM (inactive) | > 100 µM (inactive) | 17.9 µM (inactive) | 49.7 µM (inactive) | 76.6 µM | 33.7 µM (inactive) | 71.3 µM (inactive) | 84.3 µM (inactive) | 57.7 µM (inactive) | 44.7 µM (inactive) | > 100 µM (inactive) | 45.3 µM (inactive) | 50.8 µM (inactive) | > 100 µM (inactive) | 32.4 µM (inactive) | > 100 µM (inactive) |
| O=C1CCc2c(sc3ncnc(Nc4cccc(Br)c4)c23)C1 | 3.88 µM (inactive) | 3.56 µM (inactive) | 6.98 µM (inactive) | 3.26 µM (inactive) | 2.94 µM (inactive) | 3.11 µM (inactive) | 2.51 µM (inactive) | 1.94 µM (inactive) | 3.24 µM | 12.1 µM (inactive) | 3.63 µM (inactive) | 2.58 µM (inactive) | 2.52 µM (inactive) | 3.07 µM (inactive) | 3.42 µM (inactive) | 2.1 µM (inactive) | 2.75 µM (inactive) | 24.2 µM (inactive) | 3.2 µM (inactive) | 3.7 µM (inactive) |
